Assay [1] deals with T1, Carbonic anhydrase (Methanosarcina thermophila, UniProt P40881).
T1 sequence (P40881 whole entry): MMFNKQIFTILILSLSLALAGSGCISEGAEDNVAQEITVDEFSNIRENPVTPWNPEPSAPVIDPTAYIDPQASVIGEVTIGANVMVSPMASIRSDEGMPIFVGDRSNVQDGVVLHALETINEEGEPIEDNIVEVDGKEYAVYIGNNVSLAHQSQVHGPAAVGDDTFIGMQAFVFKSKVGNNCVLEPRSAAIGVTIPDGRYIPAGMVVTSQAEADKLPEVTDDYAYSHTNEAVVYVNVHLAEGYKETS

The target of assay [2] is T1, Carbonic anhydrase. The source holds these as a separate data set.
Assay [3] has as its target T2, Carbonic anhydrase (Methanobacterium thermoautotrophicum, UniProt Q50565).
T2 sequence (Q50565 whole entry): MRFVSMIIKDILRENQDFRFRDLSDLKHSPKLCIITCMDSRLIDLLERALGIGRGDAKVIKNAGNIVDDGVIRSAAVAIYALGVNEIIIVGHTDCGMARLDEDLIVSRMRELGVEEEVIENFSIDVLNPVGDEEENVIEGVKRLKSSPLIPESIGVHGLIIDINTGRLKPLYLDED

These results are taken from ChEMBL document CHEMBL1138716, “Carbonic anhydrase inhibitors. Inhibition of the prokariotic beta and gamma-class enzymes from Archaea with sulfonamides” (Bioorg Med Chem Lett, 2004).

Consider `Nc1ccc(S(N)(=O)=O)cc1Br`, for which the results for the Ki on Carbonic anhydrase [1], at Carbonic anhydrase [2] and at Carbonic anhydrase [3] were 0.28 µM, 1.72 µM and 77 µM, respectively.

As for `Nc1cc(C(F)(F)F)c(S(N)(=O)=O)cc1S(N)(=O)=O` [2,4-DISULFAMYLTRIFLUOROMETHYLANILINE], at Carbonic anhydrase [3], affinity was put at a Ki of 50 µM.

Turning to `Nc1ccc(S(N)(=O)=O)cc1Cl`, the values for the Ki at Carbonic anhydrase [1] and at Carbonic anhydrase [2] were 0.74 µM and 0.14 µM, respectively.

In the case of `Nc1ccc(S(=O)(=O)NCc2ccc(S(N)(=O)=O)cc2)cc1`, the Ki was determined as 6.36 µM on Carbonic anhydrase [1], 0.18 µM at Carbonic anhydrase [2] and 52.4 µM on Carbonic anhydrase [3].

`NCCc1ccc(S(N)(=O)=O)cc1` gave a Ki on Carbonic anhydrase [3] of 25.7 µM.

At Carbonic anhydrase [1], `CCOc1ccc2nc(S(N)(=O)=O)sc2c1` [ETHOXZOLAMIDE] displayed a Ki of 0.74 µM. That is a sub-micromolar value.

In the case of `NS(N)(=O)=O` [SULFAMIDE], the inhibition constant Ki on Carbonic anhydrase [1] is 5.96 µM; on Carbonic anhydrase [3] it was 440000 µM.

As for `Nc1ccc(S(N)(=O)=O)cc1F`, the inhibition constant Ki on Carbonic anhydrase [1] is 0.42 µM; at Carbonic anhydrase [2] it was 0.97 µM; at Carbonic anhydrase [3], 53.4 µM.

In the case of `NCc1ccc(S(N)(=O)=O)cc1` [MAFENIDE], the inhibitory constant (Ki) stood at 8.5 µM at Carbonic anhydrase [1], 0.35 µM at Carbonic anhydrase [2] and 28.5 µM at Carbonic anhydrase [3].

On to `NS(=O)(=O)O` [SULFAMATE], for which the Ki on Carbonic anhydrase [1] worked out at 3.36 µM; at Carbonic anhydrase [2], 0.09 µM; on Carbonic anhydrase [3] it was 103000 µM.

For `Cc1ccc(-c2cc(C(F)(F)F)nn2-c2ccc(S(N)(=O)=O)cc2)cc1` [CELECOXIB], the figures for the Ki on Carbonic anhydrase [1], at Carbonic anhydrase [2] and at Carbonic anhydrase [3] were 1.01 µM, 0.14 µM and 38.5 µM, respectively.

As to `Nc1ccc(S(N)(=O)=O)cc1` [SULFANILAMIDE], the Ki turned out to be 3.93 µM at Carbonic anhydrase [1], 0.25 µM on Carbonic anhydrase [2] and 57.8 µM on Carbonic anhydrase [3].

Take `CC1(C)O[C@@H]2[C@@H](CO[C@@]3(COS(N)(=O)=O)OC(C)(C)O[C@@H]23)O1` [TOPIRAMATE]: the Ki is 0.12 µM at Carbonic anhydrase [1] and 23.5 µM on Carbonic anhydrase [3].

Take `NNc1ccc(S(N)(=O)=O)cc1`: the results for the inhibition constant (Ki) at Carbonic anhydrase [1], on Carbonic anhydrase [2] and at Carbonic anhydrase [3] were 0.22 µM, 2.2 µM and 127 µM, respectively.

`Nc1ccc(S(N)(=O)=O)cc1I`: the values for the inhibition constant (Ki) on Carbonic anhydrase [1], on Carbonic anhydrase [2] and at Carbonic anhydrase [3] were 0.66 µM, 0.28 µM and 98 µM, respectively.

On to `Nc1cccc(S(N)(=O)=O)c1`, for which the Ki turned out to be 1.24 µM at Carbonic anhydrase [1], 0.17 µM on Carbonic anhydrase [2] and 14.3 µM at Carbonic anhydrase [3].
